Experimental data taken from article PMC4977052, “On the Utility of ToxCast™ and ToxPi as Methods for Identifying New Obesogens” (Environmental Health Perspectives, 2016).
Like-named read-outs stand apart in the source and are kept apart here.

How the values were obtained:
[1] = target: T1, GAL4-mPPARγ (Mus musculus, UniProt P37238); test: GAL4-mPPARγ activation, transient transfection luciferase reporter in COS7 cells; assay type: cell-based; conditions: for Activation COS7 (result in words), ToxCast PPARγ list: PPARγ activation or antagonism assays (Table 1, Table S6); for Activation of GAL4-PPARγ (text): COS7, 100 μM through 0.137 μM
T1 construct: expressed in transfected cells; host or cells: COS7
T1 sequence (P37238 with tags, fused parts or gaps limits assumed): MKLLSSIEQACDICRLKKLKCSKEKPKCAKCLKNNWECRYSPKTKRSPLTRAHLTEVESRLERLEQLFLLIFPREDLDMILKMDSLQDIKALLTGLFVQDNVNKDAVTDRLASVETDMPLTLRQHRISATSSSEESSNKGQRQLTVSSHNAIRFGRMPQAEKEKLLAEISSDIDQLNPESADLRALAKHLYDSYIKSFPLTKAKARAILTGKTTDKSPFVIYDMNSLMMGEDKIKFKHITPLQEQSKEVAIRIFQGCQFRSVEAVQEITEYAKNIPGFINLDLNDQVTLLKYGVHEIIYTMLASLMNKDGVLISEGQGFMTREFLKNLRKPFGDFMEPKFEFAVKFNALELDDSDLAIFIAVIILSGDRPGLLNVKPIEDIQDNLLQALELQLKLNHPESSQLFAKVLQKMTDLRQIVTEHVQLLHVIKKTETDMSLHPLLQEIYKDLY

[2] = test system: 3T3-L1 preadipocytes; parameters: method as in earlier work; conditions: not tested here; ref Kanayama et al. 2005; Li et al. 2012; Chamorro-García et al. 2012; Masuno et al. 2002; cited from earlier work
[3] = test system: PPARγ; conditions: cited from earlier work
[4] = test system: PPRE; parameters: method as in Knudsen et al. 2011; conditions: ToxCast Phase I 2011 release; NA = not active; ref Knudsen et al. 2011; read-out: ATGC PPRE AC50; cited from earlier work
[5] = test system: 3T3-L1 preadipocytes; test: 3T3-L1 adipogenesis assay (lipid accumulation, adipogenic gene expression); assay type: cell-based; conditions: 0.02-20 μM, 5 days after MDI induction
Summary of the method: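 After 2-day MDI induction with biotin and pantothenate, 3T3-L1 cells were treated 5 days with chemicals at 0.02–20 μM (0.1% DMSO; 10 μM if toxic). Lipid read as Nile red/Hoechst fluorescence ratio; adipogenic genes by QPCR, 2^ΔΔCt versus 36b4, normalized to DMSO.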

[6] = test system: PPARγ; parameters: method as in Filer et al. 2014; conditions: PPARγ; NA = not active; ref Filer et al. 2014; read-out: NCGC Antag. AC50, 2014 Release; cited from earlier work
[7] = test system: LXRα; parameters: method as in Knudsen et al. 2011; conditions: ToxCast Phase I 2011 release; NA = not active; ref Knudsen et al. 2011; read-out: ATGT LXRα AC50; cited from earlier work
[8] = test system: LXRβ; parameters: method as in Knudsen et al. 2011; conditions: ToxCast Phase I 2011 release; NA = not active; ref Knudsen et al. 2011; read-out: ATGT LXRβ AC50; cited from earlier work
[9] = test system: LXRβ; parameters: method as in Knudsen et al. 2011; conditions: ToxCast Phase I 2011 release; NA = not active; ref Knudsen et al. 2011; read-out: NCGC LXR AC50; cited from earlier work
[10] = test system: C/EBP; parameters: method as in Knudsen et al. 2011; conditions: ToxCast Phase I 2011 release; NA = not active; ref Knudsen et al. 2011; read-out: ATGC CEBP AC50; cited from earlier work
[11] = test system: SREBP; parameters: method as in Knudsen et al. 2011; conditions: ToxCast Phase I 2011 release; NA = not active; ref Knudsen et al. 2011; read-out: ATGC SREBP AC50; cited from earlier work
[12] = test system: Human PPARγ; conditions: cited from earlier work
[13] = test system: PPARγ; conditions: ref Filer et al. 2014, cited from earlier work
[14] = test system: DR4/LXRE; parameters: method as in Knudsen et al. 2011; conditions: ToxCast Phase I 2011 release; NA = not active; ref Knudsen et al. 2011; read-out: ATGC LXRE AC50; cited from earlier work
[15] = test system: COS7 cells; test: Cytotoxicity in transfected COS7 cells measured as decreased β-galactosidase activity; conditions: African green monkey, 24 h
Description: pCMX-Gal4, pCMX-Gal4-mPPARγ, and pCMX-Gal4-hRXRα were previously described ([Grün et al. 2006]). Transient transfections were performed in COS7 cells as described ([Chamorro-García et al. 2012]). Briefly, COS7 cells were seeded at 15,000 cells per well in 96-well tissue culture plates in 10% calf bovine serum. The following day, cells were transfected in Opti-MEM at ~ 90% confluency. One microgram of CMX-GAL4 effector plasmid was co-transfected with 5 μg tk-(MH100)4-luciferase reporter and 5 μg of CMX-β-galactosidase transfection control plasmids in Opti-MEM® using Lipofectamine® 2000 reagent (Invitrogen™ Life Technologies, Carlsbad, CA, USA), following the manufacturer’s recommended protocol. All chemicals were solvated in dimethyl sulfoxide (DMSO). After overnight incubation, the medium was replaced with Dulbecco’s Modified Eagle Medium (DMEM; HyClone, Logan, UT, USA), 10% resin charcoal stripped fetal bovine serum (FBS) plus ligands at concentrations indicated in the figure legends for an additional 24 hr. DMSO concentration was maintained at 0.05% across all chemical treatments. Cells were lysed and assayed for luciferase and β-galactosidase activity as previously described ([Forman et al. 1995]). All transfections were performed in triplicate and reproduced in multiple experiments. Data are reported as fold induction or reduction over vehicle ([…]) controls ± SEM (standard error of the mean) using standard propagation of error ([Bevington and Robinson 2003]). […] The EC50, EC10, IC50, and IC10 values from NCGC and ToxCast™ are reported from gain AC50 and AC10 values in the ToxCast™ 2014 release ([Filer et al. 2014]).
Figure 1 ToxCast™ Chemical Activity on PPARγ. The ability of a graded dose series of ToxCast™ chemicals to (A) activate or (B) antagonize GAL4-mPPARγ was tested in transiently transfected COS7 cells. (A, B) Data points are averages of triplicate transfections (three biological replicates). […] Data are depicted as (A) fold induction or (B) reduction over vehicle (0.05% DMSO) controls ± SEM. (A) ToxCast™ chemicals were tested in 3-fold serial dilutions from 100 μM through 0.137 μM, with the final data point being 0.05% DMSO. Rosiglitazone serves as a positive control activator. (B) ToxCast™ chemicals were tested in 3-fold serial dilutions from 100 μM, in competition with 50 nM rosiglitazone (Rosi). […] (C) EC50, EC10, IC50, and IC10 values calculated from A and B are reported and compared to commercial assays (see Figure S1). Note: ATG, Attagene GAL-PPARγ activation assay; NCGC, GeneBLAzer® agonist (EC values) or antagonist (IC values) assays. Triphenyltin was previously published ([Kanayama et al. 2005]).

[16] = test system: RXRα; conditions: ToxCast Phase I 2011 release; NA = not active; ref Knudsen et al. 2011; read-out: NCGC RXRα AC50; cited from earlier work
[17] = Cos-7 transient transfection, PPARγ or RXRα activation assays (Table 2)
[18] = ToxCast Phase I 2011 release, NA = not active, ref Knudsen et al. 2011, read-out: ATGT PPARγ AC50
[19] = PPARγ, NA = not active, ref Filer et al. 2014, read-out: ATG Agonist AC50, 2014 Release
[20] = PPARγ, NA = not active, ref Knudsen et al. 2011, read-out: ATG Agonist AC50, 2011 Release
[21] = PPARγ direct binding, NA = not active, ref Filer et al. 2014, read-out: NVS Agonist AC50, 2014 Release
[22] = PPARγ direct binding, NA = not active, ref Knudsen et al. 2011, read-out: NVS Agonist AC50, 2011 Release
[23] = PPARγ, NA = not active, read-out: NCGC Agonist AC50, 2014 Release

Row | Compound | Activation COS7 (result in words), ToxPi chemicals [1, 17] | Adipogenesis 3T3-L1 (result in words), previously published [2] | AC50 [3, 18] [µM] | AC50 [4] [µM] | Activation COS7 (result in words), ToxCast PPARγ list ([1]; Cos-7 transient transfection) | Adipogenesis 3T3-L1 (result in words) [5] | AC50 [3, 19] [µM] | AC50 [3, 20] [µM] | AC50 [6] [µM] | AC50 [7] [µM] | AC50 [8] [µM] | AC50 [9] [µM] | AC50 [11] [µM] | also measured
1 | CC(C)(c1ccc(O)cc1)c1ccc(O)cc1 [Bisphenol A] | Inactive | Positive | 27 | 37 |  |  |  |  |  |  |  |  |  | 
2 | Cc1nn(C)c(Oc2ccccc2)c1C=NOCc1ccc(C(=O)OC(C)(C)C)cc1 [(Z,E)-Fenpyroximate] | Inactive |  |  | 0.065 | Inactive | Negative | 2.4 | 8.6 | 35.9 | 4.3 | 8.8 | 6.9 |  | 
3 | C=CCC1=C(C)C(OC(=O)C2C(C=C(C)C)C2(C)C)CC1=O (mixture of isomers) [d-cis,trans-Allethrin] | Inactive |  | 36 | 36 |  | Negative |  |  |  |  |  | 11.9 | 48 | AC50 [10]: 25 µM
4 | C#CCC1=C(C)C(OC(=O)C2C(C=C(C)C)C2(C)C)CC1=O (stereo not drawn) [Prallethrin] |  |  | 44 | 8.4 |  | Negative |  |  |  |  |  | 16.7 | 33 | Activation COS7 (result in words), ToxPi chemicals [1]: Inactive; AC50 [10]: 29 µM
5 | [OH-].c1cc[c]([Sn+]([c]2ccccc2)[c]2ccccc2)cc1 [Triphenyltin] | PPARγ activator | Positive |  | 0.009 | PPARγ activator |  | 0.02 | 0.022 | 0.02 |  |  |  |  | Activation of GAL4-PPARγ (text) [1]: activated GAL-PPARγ; AC50 ([1]; read-out: Activation AC50 (PPARγ activators), Cos-7 transient transfection): 0.02 µM; AC50 [12, 21]: 0.28 µM; AC50 [12, 22]: 0.54 µM; AC50 [13, 23]: 21.6 µM
6 | CCOP(=S)(Oc1cnc(C(C)(C)C)nc1)OC(C)C (stereo not drawn) [Tebupirimfos] | Inactive |  | 43 |  |  | Positive |  |  |  | 30 | 22 | 7.1 | 31 | AC50 [14]: 9.4 µM
7 | COP(=S)(OC)Oc1ccc(SC)c(C)c1 [Fenthion] | Inactive |  | 36 | 18 |  | Negative |  |  |  | 33 | 37 |  |  | AC50 [14]: 34 µM
8 | CCCOC/C(=N\c1ccc(Cl)cc1C(F)(F)F)n1ccnc1 [Triflumizole] |  | Positive |  |  | PPARγ activator |  | 2.2 | 2.8 | 0.3 |  |  |  |  | Activation of GAL4-PPARγ (text) [1]: activated GAL-PPARγ; AC50 ([1]; Cos-7 transient transfection): 11.5 µM; Concentration at which cytotoxicity (decreased β-galactosidase activity) was observed [15]: 100 µM; AC50 ([3]; ToxCast 2014 release, ref Filer et al. 2014, read-out: Attagene AC50 (panel A, w/o Z-Score Correction ranking)): 20.4 µM; AC50 [12, 21]: 20.8 µM; AC50 [12, 22]: 35 µM; AC50 ([12]; direct binding, ToxCast 2014 release, ref Filer et al. 2014, read-out: NovaScreen AC50 (panel A)): 14.1 µM; AC50 [13, 23]: 67.5 µM; AC50 ([13]; ToxCast 2014 release, read-out: Tox21/NCGC AC50 (panel A)): 79.9 µM
9 | C[Si](Cn1cncn1)(c1ccc(F)cc1)c1ccc(F)cc1 [Flusilazole] | Inactive |  | 51 | 46 |  | Positive |  |  |  |  |  |  | 20 | 
10 | C=CCOC(Cn1ccnc1)c1ccc(Cl)cc1Cl (stereo not drawn) [Imazalil] | Inactive |  | 73 |  |  | Negative |  |  |  |  |  |  |  | AC50 [16]: 3.2 µM
